Laboratory results published in patent publication US20240024273A1, “TOPICAL ADMINISTRATION OF 2-(DIETHYLAMINO)ETHYL 2-(4-ISOBUTYLPHENYL)PROPRIONATE FOR TREATMENT OF DISEASES” (TECHFIELDS PHARMA CO., LTD., priority 2020, published 2024).

Experiments:
[1] = system: Mild to Moderate Osteoarthritis of the Knee; experiment: Phase 2 study: use of rescue medication (paracetamol); type: in vivo, human; conditions: for Percentage of patients using rescue medication: only for knee pain
Procedure: Subjects taking nonsteroidal anti-inflammatory drugs (NSAID) or other analgesics may enroll in the trial, but will discontinue any analgesic therapy for the duration of the study, starting at least 4 days (or 5 half lives, whichever is longer) prior to administration of the first dose of study medication (i.e., for an analgesic washout period before Day 1). Subjects will be allowed to take rescue medication (up to six 325 mg tablets [total of 1950 mg] of acetaminophen per day; provided by the Sponsor) for residual knee or other body pain starting 4 days (or 5 half lives, whichever is longer) prior to administration of the first dose of study medication except during the 24 hours prior to Baseline (Day 1), Week 2, Week 4, Week 8, Week 12/end of study (EOS), and Follow up assessments.
Subjects will record the following information in a Daily Diary starting at Screening: the amount of knee pain in the target knee while walking during the preceding 24 hours (using a 100 mm visual analog scale [VAS]), the times and number of sprays for each administration of study medication, the times when the subject washes his/her knees and/or takes a shower, the number of tablets of rescue medication taken that day and the times taken, the reason for taking the rescue medication (e.g., knee pain, headache, low back pain), any other concomitant medications taken that day, and any AEs occurring that day.
3.9.3. Exploratory Efficacy Endpoints: • 1. Subject's global assessment of disease status of the target knee at 2, 4, 8, and 12 weeks of treatment; • 2. Investigator's global assessment of disease status of the target knee at 2, 4, 8, and 12 weeks of treatment; • 3. Subject's global assessment of response to therapy of the target knee at 2, 4, 8, and 12 weeks of treatment; • 4. Investigator's global assessment of response to therapy of the target knee at 2, 4, 8, and 12 weeks of treatment; • 5. Change from Baseline over time in VAS pain scores for the target knee from Daily Diary data; • 6. Amount of rescue medication (acetaminophen) consumed per day for target knee pain.
Zeidler thought that paracetamol as rescue medication in nearly all OA trials may be a missing link to explain at least partially the large placebo response in OA trials. (Henning Zeidler, Paracetamol and the Placebo Effect in Osteoarthritis Trials: A Missing Link? Pain Research and Treatment, Volume 2011, 1-6.) From published data, the difference of the used amount of paracetamol is very small between the placebo and active drug cohorts. […] (T. J. Schnitzer, A. Kivitz, H. Frayssinet, and B. Duquesroix, “Efficacy and safety of naproxcinod in the treatment of patients with osteoarthritis of the knee: a 13-week prospective, randomized, multicenter study.” Osteoarthritis and Cartilage, vol. 18, no. 5, pp. 629-639, 2010.) In this trial, NSAIDs or any analgesic therapy was discontinued for the duration of the study, starting at least 14 days (or 5 half lives, whichever is longer) prior to administration of the first dose of study medication (ie, for an analgesic washout period before Day 1). Subjects were allowed to take rescue medication (up to six 325 mg tablets [total of 1950 mg] of acetaminophen per day; provided by the Sponsor) for residual knee or other body pain starting at least 4 days (or 5 half lives, whichever is longer) prior to administration of the first dose of study medication except during the 24 hours prior to Baseline (Day 1), Week 2, Week 4, Week 8, Week 12/end of study (EOS), and Follow-up assessments.

[2] = 14-day repeated dermal dose toxicity study; set-up: species or system Rats; conditions: rat, in vivo, topical or ocular; 14-day dermal
[3] = system: osteoarthritis of the knee; experiment: Second Phase 2 study: WOMAC stiffness subscale score; type: in vivo, human; conditions: Low Dose (2 spray/knee, 8.75 mg/knee) Cohort
[4] = for all pain and other conditions, 17.5 mg/knee (BID), Week 12
[5] = for all pain and other conditions, 35 mg/knee (BID), Week 2
[6] = for all pain and other conditions, 35 mg/knee (BID), Week 4
[7] = for all pain and other conditions, 35 mg/knee (BID), Week 8
[8] = for all pain and other conditions, 35 mg/knee (BID), Week 12

## CCN(CC)CCOC(=O)C(C)c1ccc(CC(C)C)cc1 (centres unmarked) [2-(diethylamino)ethyl 2-(4-isobutylphenyl)propionate]
[1]; [4]
  Daily amount of rescue medication (paracetamol): 69 mg/day/patient
  Rescue medication (paracetamol), % of decrease from baseline: 75.2%
[1]; for all pain and other conditions, 35 mg/knee (BID), Day −2 to day −5 (baseline)
  Daily amount of rescue medication (paracetamol): 310 mg/day/patient
[1]; [5]
  Daily amount of rescue medication (paracetamol): 171 mg/day/patient
  Rescue medication (paracetamol), % of decrease from baseline: 44.8%
[1]; [6]
  Daily amount of rescue medication (paracetamol): 158 mg/day/patient
  Rescue medication (paracetamol), % of decrease from baseline: 49.0%
[1]; [7]
  Daily amount of rescue medication (paracetamol): 111 mg/day/patient
  Rescue medication (paracetamol), % of decrease from baseline: 64.2%
[1]; [8]
  Daily amount of rescue medication (paracetamol): 94 mg/day/patient
  Rescue medication (paracetamol), % of decrease from baseline: 69.7%
[1]; for other conditions excluding knee pain, 8.75 mg/knee (BID), Day −2 to day −5 (baseline)
  Daily amount of rescue medication (paracetamol): 15 mg/day/patient
[1]; for other conditions excluding knee pain, 8.75 mg/knee (BID), Week 2
  Daily amount of rescue medication (paracetamol): 47 mg/day/patient
[1]; for other conditions excluding knee pain, 8.75 mg/knee (BID), Week 4
  Daily amount of rescue medication (paracetamol): 41 mg/day/patient
[1]; for other conditions excluding knee pain, 8.75 mg/knee (BID), Week 8
  Daily amount of rescue medication (paracetamol): 44 mg/day/patient
[1]; for other conditions excluding knee pain, 8.75 mg/knee (BID), Week 12
  Daily amount of rescue medication (paracetamol): 50 mg/day/patient
[1]; for other conditions excluding knee pain, 17.5 mg/knee (BID), Day −2 to day −5 (baseline)
  Daily amount of rescue medication (paracetamol): 35 mg/day/patient
[1]; for other conditions excluding knee pain, 17.5 mg/knee (BID), Week 2
  Daily amount of rescue medication (paracetamol): 50 mg/day/patient
[1]; for other conditions excluding knee pain, 17.5 mg/knee (BID), Week 4
  Daily amount of rescue medication (paracetamol): 48 mg/day/patient
[1]; for other conditions excluding knee pain, 17.5 mg/knee (BID), Week 8
  Daily amount of rescue medication (paracetamol): 33 mg/day/patient
[1]; for other conditions excluding knee pain, 17.5 mg/knee (BID), Week 12
  Daily amount of rescue medication (paracetamol): 13 mg/day/patient
[1]; for other conditions excluding knee pain, 35 mg/knee (BID), Day −2 to day −5 (baseline)
  Daily amount of rescue medication (paracetamol): 19 mg/day/patient
[1]; for other conditions excluding knee pain, 35 mg/knee (BID), Week 2
  Daily amount of rescue medication (paracetamol): 73 mg/day/patient
[1]; for other conditions excluding knee pain, 35 mg/knee (BID), Week 4
  Daily amount of rescue medication (paracetamol): 70 mg/day/patient
[1]; for other conditions excluding knee pain, 35 mg/knee (BID), Week 8
  Daily amount of rescue medication (paracetamol): 57 mg/day/patient
[1]; for other conditions excluding knee pain, 35 mg/knee (BID), Week 12
  Daily amount of rescue medication (paracetamol): 50 mg/day/patient
[1]; in vivo
  maximum decrease of rescue medication for all pain, pre-treatment to week 12: up to 75%
[1]; 8.75 mg/knee (BID), Day −2 to day −5 (baseline)
  Percentage of patients using rescue medication: 35.3%
[1]; 8.75 mg/knee (BID), Week 2
  Percentage of patients using rescue medication: 23.6%
[1]; 8.75 mg/knee (BID), Week 4
  Percentage of patients using rescue medication: 18.4%
[1]; 8.75 mg/knee (BID), Week 8
  Percentage of patients using rescue medication: 17.1%
[1]; 8.75 mg/knee (BID), Week 12
  Percentage of patients using rescue medication: 16.3%
[1]; 17.5 mg/knee (BID), Day −2 to day −5 (baseline)
  Percentage of patients using rescue medication: 24.0%
[1]; 17.5 mg/knee (BID), Week 2
  Percentage of patients using rescue medication: 11.3%
[1]; 17.5 mg/knee (BID), Week 4
  Percentage of patients using rescue medication: 8.4%
[1]; 17.5 mg/knee (BID), Week 8
  Percentage of patients using rescue medication: 7.2%
[1]; 17.5 mg/knee (BID), Week 12
  Percentage of patients using rescue medication: 6.5%
[1]; 35 mg/knee (BID), Day −2 to day −5 (baseline)
  Percentage of patients using rescue medication: 34.8%
[1]; 35 mg/knee (BID), Week 2
  Percentage of patients using rescue medication: 12.4%
[1]; 35 mg/knee (BID), Week 4
  Percentage of patients using rescue medication: 11.0%
[1]; 35 mg/knee (BID), Week 8
  Percentage of patients using rescue medication: 7.6%
[1]; 35 mg/knee (BID), Week 12
  Percentage of patients using rescue medication: 5.8%
[1]; pre-treatment to week 12
  maximum decrease in the use of rescue medication, paracetamol: 84.9%
[2]
  NOAEL at 14 days: 250 mg/kg/day
[3]; Avg. of all patients (blinded), Follow-up
  WOMAC Joint Stiffness Subscale Score, Follow-up, Avg.: 41.4
[3]; individual patient (blinded), Day 1
  WOMAC Joint Stiffness Subscale Score, Day 1: 60.5
[3]; individual patient (blinded), Week 8
  WOMAC Joint Stiffness Subscale Score, Week 8: 64.5
